For five compounds, EC50 and Emax results are on record in patent US20260176320A1, “MODULATORS OF G-PROTEIN COUPLED RECEPTORS” (priority 2018, published 2026).

Where two headings read alike, the source gives them in different places. Bounds are passed on as bounds.

One may read the Emax as the greatest response seen or fitted, relative to the assay's reference.

Format in all cases: cell-based
In experiment [1] the target is T1, GLP-1R (Homo sapiens, UniProt P43220). In words: HitHunter cAMP assay (GLP-1R). To be noted: cAMP; for Emax: read-out: (Emax) GLP-1R. In short, it runs like this:
(§1)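 Suspension cells expressing each receptor (10,000 per well) in HBSS with 10 mM HEPES, 625 μM IBMX and 0.2% BSA were treated with a 22-point 2-fold agonist series in duplicate for 30 minutes at room temperature. cAMP was detected by antibody immunocompetition with luminescence read after overnight incubation.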
In general terms: cAMP levels reflect the balance of adenylyl cyclase and phosphodiesterase activity.

A further experiment concerns the target T2, GIP-R (Homo sapiens, UniProt P48546).
T2 sequence (P48546 22-466): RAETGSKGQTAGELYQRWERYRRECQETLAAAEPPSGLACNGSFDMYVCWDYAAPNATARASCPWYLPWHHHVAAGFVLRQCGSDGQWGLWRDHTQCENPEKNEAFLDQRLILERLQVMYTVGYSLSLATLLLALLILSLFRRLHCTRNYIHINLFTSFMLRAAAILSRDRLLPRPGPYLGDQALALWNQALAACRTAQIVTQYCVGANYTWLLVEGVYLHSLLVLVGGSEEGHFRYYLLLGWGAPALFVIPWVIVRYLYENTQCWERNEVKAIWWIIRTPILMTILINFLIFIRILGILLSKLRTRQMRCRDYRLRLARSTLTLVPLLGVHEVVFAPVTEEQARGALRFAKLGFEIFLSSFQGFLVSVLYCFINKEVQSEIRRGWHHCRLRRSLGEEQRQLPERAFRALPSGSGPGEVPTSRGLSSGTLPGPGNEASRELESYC
In words: HitHunter cAMP assay (GIP-R). As to conditions: cAMP; for Emax: read-out: (Emax) GIP-R. In short, it runs like this:
as §1

The target of experiment [2] is T1, GLP-1R. The experiment in a line: PathHunter β-arrestin assay. In short, it runs like this: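 Cells seeded overnight, then medium replaced with medium containing 0.2% BSA; agonists added as 22-point 2-fold DMSO dilution series in duplicate and incubated 90 min at 37 °C, 5% CO2. After addition of detection solution, plates sat 3 h at room temperature in the dark; luminescence read.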

The mark [3] stands for this setting: Table 3, read-out: EC50 GLP-1R/nM.
[4] abbreviates: Table 3A, read-out: EC50 GLP-1R/nM.
Setting [5] is: Table 3, read-out: EC50 GIP-R/nM.
Setting [6] is: Table 3A, read-out: EC50 GIP-R/nM.
The mark [7] stands for this setting: PathHunter β-arrestin assay, read-out: β-arrestin activity EC50.

T1 sequence (P43220 24-463): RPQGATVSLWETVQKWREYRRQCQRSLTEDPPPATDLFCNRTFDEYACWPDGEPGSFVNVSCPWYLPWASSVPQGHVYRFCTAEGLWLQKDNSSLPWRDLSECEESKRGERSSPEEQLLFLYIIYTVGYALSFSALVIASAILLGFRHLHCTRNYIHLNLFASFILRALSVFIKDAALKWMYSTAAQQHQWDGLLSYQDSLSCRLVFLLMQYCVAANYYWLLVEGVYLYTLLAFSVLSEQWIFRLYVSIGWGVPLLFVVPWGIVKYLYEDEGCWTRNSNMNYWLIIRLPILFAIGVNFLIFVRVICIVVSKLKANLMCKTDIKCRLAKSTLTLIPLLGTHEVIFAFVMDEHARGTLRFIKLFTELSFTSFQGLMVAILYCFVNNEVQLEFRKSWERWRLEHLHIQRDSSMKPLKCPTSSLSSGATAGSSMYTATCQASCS

In the case of `CCCCCCCCCCCCCCCC(=O)N[C@@H](CCC(=O)NCCCC[C@H](NC(=O)[C@H](CO)NC(=O)[C@@H]1CCCN1C(=O)[C@@H]1CCCN1C(=O)[C@@H]1CCCN1C(=O)[C@H](C)NC(=O)CNC(=O)[C@H](CO)NC(=O)[C@H](CO)NC(=O)[C@@H]1CCCN1C(=O)CNC(=O)CNC(=O)[C@H](C)NC(=O)[C@H](CC(C)C)NC(=O)[C@H](CC(C)C)NC(=O)[C@H](Cc1c[nH]c2ccccc12)NC(=O)[C@H](CC(N)=O)NC(=O)[C@@H](NC(=O)[C@H](Cc1ccccc1)NC(=O)[C@H](CCC(=O)O)NC(=O)C(C)(C)NC(=O)[C@H](C)NC(=O)[C@H](C)NC(=O)[C@H](CCC(N)=O)NC(=O)[C@H](CCCCN)NC(=O)[C@H](CC(=O)O)NC(=O)[C@H](CC(C)C)NC(=O)[C@H](Cc1ccc(O)cc1)NC(=O)[C@@H](NC(=O)[C@H](CO)NC(=O)[C@H](Cc1ccc(O)cc1)NC(=O)[C@H](CC(=O)O)NC(=O)[C@H](CO)NC(=O)[C@@H](NC(=O)[C@H](Cc1ccccc1)NC(=O)[C@@H](NC(=O)CNC(=O)[C@H](CCC(=O)O)NC(=O)CSCC(=O)NCCN1CCC(C)(C)C1=O)[C@@H](C)O)[C@@H](C)O)[C@@H](C)CC)C(C)C)C(N)=O)C(=O)O` [Compound 35], the EC50 is 0.1 to 1 nM at GLP-1R [1] (EC50 GLP-1R/nM, Table 3); 0.1 to 1 nM on GLP-1R [1] (EC50 GLP-1R/nM, Table 3A); 1 to 10 nM at GIP-R (EC50 GIP-R/nM, Table 3); 1 to 100 nM at GIP-R (read-out: EC50 GIP-R/nM, Table 3A); > 1000 nM at GLP-1R [2]. The Emax at GLP-1R [1] (Table 3) is 110%; on GLP-1R [1] (Table 3A), 110%; on GIP-R (Table 3), 20 to 37%; on GIP-R (Table 3A), 20 to 37%.

Regarding `CC[C@H](C)[C@H](NC(=O)[C@H](CO)NC(=O)[C@H](Cc1ccc(O)cc1)NC(=O)[C@H](CC(=O)O)NC(=O)[C@H](CO)NC(=O)[C@@H](NC(=O)[C@H](Cc1ccccc1)NC(=O)[C@@H](NC(=O)CNC(=O)[C@H](CCC(=O)O)NC(=O)CSCC(=O)NCCN1C(=O)CSC1=O)[C@@H](C)O)[C@@H](C)O)C(=O)N[C@@H](Cc1ccc(O)cc1)C(=O)N[C@@H](CC(C)C)C(=O)N[C@@H](CC(=O)O)C(=O)N[C@@H](CCCCN)C(=O)N[C@@H](CCC(N)=O)C(=O)N[C@@H](C)C(=O)N[C@@H](C)C(=O)NC(C)(C)C(=O)N[C@@H](CCC(=O)O)C(=O)N[C@@H](Cc1ccccc1)C(=O)N[C@H](C(=O)N[C@@H](CC(N)=O)C(=O)N[C@@H](Cc1c[nH]c2ccccc12)C(=O)N[C@@H](CC(C)C)C(=O)N[C@@H](CC(C)C)C(=O)N[C@@H](C)C(=O)NCC(=O)NCC(=O)N1CCC[C@H]1C(=O)N[C@@H](CO)C(=O)N[C@@H](CO)C(=O)NCC(=O)N[C@@H](C)C(=O)N1CCC[C@H]1C(=O)N1CCC[C@H]1C(=O)N1CCC[C@H]1C(=O)N[C@@H](CO)C(=O)N[C@@H](CCCCN)C(N)=O)C(C)C` [Compound 196], the Emax fell in the range of 93 to 104% on GLP-1R [1] (Table 3), 93 to 104% at GLP-1R [1] (Table 3A), 41 to 86% on GIP-R (Table 3) and 41 to 86% at GIP-R (Table 3A). Also, the EC50 is 0.1 to 10 nM on GLP-1R [1] (setting [3]); 0.1 to 10 nM at GLP-1R [1] (setting [4]); 1 to 100 nM at GIP-R (setting [5]); 1 to 100 nM at GIP-R (setting [6]); > 1000 nM at GLP-1R [2] (setting [7]).

On to `CCCCCCCCCCCCCCCC(=O)N[C@@H](CCC(=O)NCCCC[C@H](NC(=O)[C@H](CO)NC(=O)[C@@H]1CCCN1C(=O)[C@@H]1CCCN1C(=O)[C@@H]1CCCN1C(=O)[C@H](C)NC(=O)CNC(=O)[C@H](CO)NC(=O)[C@H](CO)NC(=O)[C@@H]1CCCN1C(=O)CNC(=O)CNC(=O)[C@H](C)NC(=O)[C@H](CC(C)C)NC(=O)[C@H](CC(C)C)NC(=O)[C@H](Cc1c[nH]c2ccccc12)NC(=O)[C@H](CC(N)=O)NC(=O)[C@@H](NC(=O)[C@H](Cc1ccccc1)NC(=O)[C@H](CCC(=O)O)NC(=O)C(C)(C)NC(=O)[C@H](C)NC(=O)[C@H](C)NC(=O)[C@H](CCC(N)=O)NC(=O)[C@H](CCCCN)NC(=O)[C@H](CC(=O)O)NC(=O)[C@H](CC(C)C)NC(=O)[C@H](Cc1ccc(O)cc1)NC(=O)[C@@H](NC(=O)[C@H](CO)NC(=O)[C@H](Cc1ccc(O)cc1)NC(=O)[C@H](CC(=O)O)NC(=O)[C@H](CO)NC(=O)[C@@H](NC(=O)[C@H](Cc1ccccc1)NC(=O)[C@@H](NC(=O)CNC(=O)[C@H](CCC(=O)O)NC(=O)CSCC(=O)NCCN1CCSC1=O)[C@@H](C)O)[C@@H](C)O)[C@@H](C)CC)C(C)C)C(N)=O)C(=O)O` [Compound 86], for which the Emax is 110% at GLP-1R [1] (Table 3), 110% on GLP-1R [1] (Table 3A), 61% on GIP-R (Table 3) and 61% on GIP-R (Table 3A). In addition, the EC50 on GLP-1R [1] (setting [3]) was 0.1 to 1 nM; at GLP-1R [1] (setting [4]) it was 0.1 to 1 nM; at GIP-R (setting [5]), 1 to 10 nM; at GIP-R (setting [6]), 1 to 10 nM; at GLP-1R [2] (setting [7]) it was > 1000 nM.

For `CCCCCCCCCCCCCCCC(=O)N[C@@H](CCC(=O)NCCCC[C@H](NC(=O)[C@H](CO)NC(=O)[C@@H]1CCCN1C(=O)[C@@H]1CCCN1C(=O)[C@@H]1CCCN1C(=O)[C@H](C)NC(=O)CNC(=O)[C@H](CO)NC(=O)[C@H](CO)NC(=O)[C@@H]1CCCN1C(=O)CNC(=O)CNC(=O)[C@H](C)NC(=O)[C@H](CC(C)C)NC(=O)[C@H](CC(C)C)NC(=O)[C@H](Cc1c[nH]c2ccccc12)NC(=O)[C@H](CC(N)=O)NC(=O)[C@@H](NC(=O)[C@H](Cc1ccccc1)NC(=O)[C@H](CCC(=O)O)NC(=O)C(C)(C)NC(=O)[C@H](C)NC(=O)[C@H](C)NC(=O)[C@H](CCC(N)=O)NC(=O)[C@H](CCCCN)NC(=O)[C@H](CC(=O)O)NC(=O)[C@H](CC(C)C)NC(=O)[C@H](Cc1ccc(O)cc1)NC(=O)[C@@H](NC(=O)[C@H](CO)NC(=O)[C@H](Cc1ccc(O)cc1)NC(=O)[C@H](CC(=O)O)NC(=O)[C@H](CO)NC(=O)[C@@H](NC(=O)[C@H](Cc1ccccc1)NC(=O)[C@@H](NC(=O)CNC(=O)[C@H](CCC(=O)O)NC(=O)CSCC(=O)NCCN1CCCOC1=O)[C@@H](C)O)[C@@H](C)O)[C@@H](C)CC)C(C)C)C(N)=O)C(=O)O` [Compound 6], the Emax is 95% at GLP-1R [1] (Table 3), 95% at GLP-1R [1] (Table 3A), 75% at GIP-R (Table 3) and 75% on GIP-R (Table 3A). Further, the EC50 was 0.1 to 1 nM at GLP-1R [1] (setting [3]); 0.1 to 1 nM on GLP-1R [1] (setting [4]); 1 to 10 nM on GIP-R (setting [5]); 1 to 10 nM at GIP-R (setting [6]); > 1000 nM on GLP-1R [2] (setting [7]).

Regarding `CC[C@H](C)[C@H](NC(=O)[C@H](CO)NC(=O)[C@H](Cc1ccc(O)cc1)NC(=O)[C@H](CC(=O)O)NC(=O)[C@H](CO)NC(=O)[C@@H](NC(=O)[C@H](Cc1ccccc1)NC(=O)[C@@H](NC(=O)CNC(=O)[C@H](CCC(=O)O)NC(=O)CCCNC(=O)CCN1C(=O)c2ccccc2C1=O)[C@@H](C)O)[C@@H](C)O)C(=O)N[C@@H](Cc1ccc(O)cc1)C(=O)N[C@@H](CC(C)C)C(=O)N[C@@H](CC(=O)O)C(=O)N[C@@H](CCCCN)C(=O)N[C@@H](CCC(N)=O)C(=O)N[C@@H](C)C(=O)N[C@@H](C)C(=O)NC(C)(C)C(=O)N[C@@H](CCC(=O)O)C(=O)N[C@@H](Cc1ccccc1)C(=O)N[C@H](C(=O)N[C@@H](CC(N)=O)C(=O)N[C@@H](Cc1c[nH]c2ccccc12)C(=O)N[C@@H](CC(C)C)C(=O)N[C@@H](CC(C)C)C(=O)N[C@@H](C)C(=O)NCC(=O)NCC(=O)N1CCC[C@H]1C(=O)N[C@@H](CO)C(=O)N[C@@H](CO)C(=O)NCC(=O)N[C@@H](C)C(=O)N1CCC[C@H]1C(=O)N1CCC[C@H]1C(=O)N1CCC[C@H]1C(=O)N[C@@H](CO)C(=O)N[C@@H](CCCCN)C(N)=O)C(C)C` [Compound 154], the Emax on GLP-1R [1] (Table 3) is 80%; at GLP-1R [1] (Table 3A), 80%; on GIP-R (Table 3), 78%; on GIP-R (Table 3A), 78%. Also, the EC50 was 1 to 10 nM on GLP-1R [1] (setting [3]); 1 to 10 nM at GLP-1R [1] (setting [4]); 1 to 10 nM at GIP-R (setting [5]); 1 to 10 nM at GIP-R (setting [6]); > 1000 nM on GLP-1R [2] (setting [7]).
